According to patent publication US20160374967A1, “ORGANIC THIOPHOSPHATE ANTIRETROVIRAL AGENTS” (The Government of the U.S.A., as Represented by the …, priority 2006, published 2016):
Read-outs that look alike come from different tables or passages of the source.

What was measured:
[1] = test system: PHA-blasts; details: human, 72 h
[2] = test system: HIV; assay: microbe, parasite or virus in culture; type: cell-based; details: for duration of action (anti-HIV, cell culture): cysteamine re-added every 12 hours, WR-1065 added once in 72 hour period
[3] = test system: HIV-1BZ-167; assay: HIV-1 replication in PHA-blasts by p24 ELISA, dose-response and combinations; type: cell-based; details: for IC50: n=3, read-out: 50% Inhibition of virus replication
[4] = mouse, in vivo; cited from earlier work
[5] = in vivo; cited from earlier work
[6] = cited from earlier work
[7] = mice, cited from earlier work
[8] = test system: HIV; type: cell-based; details: human T-lymphocytes
[9] = test system: PHA-blasts; assay: Cell survival (cytotoxicity) by trypan blue in HIV-1 infected PHA-blasts
[10] = test system: influenza
[11] = test system: PHA blasts; assay: Viability of PHA blasts exposed to WR-1065 (no HIV), 72 h; type: cell-based, human
[12] = rhesus macaques, duodenal 150 mg/kg BW of amifostine or phosphonol, cited from earlier work
[13] = test system: adenovirus; assay: Antiviral efficacy against adenovirus; details: three different species of adenovirus
[14] = test system: TK6 cells; assay: 14-day survival of TK6 cells in continuous presence of WR-1065; type: cell-based, human
[15] = metabolite after amifostine injection at 500-910 mg/m^2
[16] = metabolite after amifostine injection

SMILES: Cc1cn([C@H]2C[C@H](N=[N+]=[N-])[C@@H](CO)O2)c(=O)[nH]c1=O [AZT, Zidovudine, reference compound]
- target cell survival ([1]; 7.75 μM): 54±15%
- HIV Viral P24 ([2]; Experiment #1, 10 μM AZT, 72 h): 0.13 pg/mL
- HIV Viral P24 ([2]; Experiment #2, 10 μM AZT, 72 h): 9.07 pg/mL
- HIV Viral P24 ([2]; Experiment #3, 10 μM AZT, 72 h): 2.9 pg/mL
- inhibition at 10 µM ([2]; Human immunodeficiency virus 1, PBMC, 72 h, Experiment #1, 10 μM AZT, 72 h, read-out: Estimated percent inhibition): ~100%
- inhibition at 10 µM ([2]; Human immunodeficiency virus 1, PBMC, 72 h, Experiment #2, 10 μM AZT, 72 h, read-out: Estimated percent inhibition): 94.9%
- inhibition at 10 µM ([2]; Human immunodeficiency virus 1, PBMC, 72 h, Experiment #3, 10 μM AZT, 72 h, read-out: Estimated percent inhibition): ~100%
- inhibition of virus replication ([3]; AZT 0.8, 3.0 and 5.0 μM): 85-96%
- dose for 50% reduction in HIV-1 replication, fold lower than that of WR-1065 ([3]; AZT versus WR-1065): about 1000 fold
- inhibition at 7.75 µM ([3]; Human immunodeficiency virus 1, 7.75 μM, alone, mean±SD, n=4): 96.7 ± 5.1%
- IC50 ([3]; Human immunodeficiency virus 1, dose-response 1.9-117.0 nM, mean±SE): 3.5 ± 0.7 nM

SMILES: NCCCNCCSP(=O)(O)O [Amifostine, S-2-(3-aminopropyl)aminoethyl phosphorothioic acid]
- cell survival ([1]; 50 μM): 53±10%
- 100% effective radioprotective dose [4]: about one half of the MTD
- inhibition at 50 µM ([3]; Human immunodeficiency virus 1, 50 μM amifostine (with alkaline phosphatase), mean±SE, n=4): 75.4 ± 8.3%
- effects of single doses of up to 2700 mg/m^2 [5]: no untoward effects
- plasma T1/2 ([6]; in vivo): ~0.167 h
- maximally tolerated dose (MTD) ([7]; i.p.): 432 mg/kg BW
- maximally tolerated dose (MTD) ([7]; p.o.): 720 mg/kg BW

SMILES: NCCS [Cysteamine, reference compound]
- suppression of HIV replication ([2]; 200 μM): ~100%
- duration of action (anti-HIV, cell culture) [2]: very short

SMILES: NCCCNCCS [WR-1065, 2-(3-aminopropylamino)ethanethiol]
- intra-cellular concentration necessary to reduce HIV replication by ~100% [8]: ~50 picomoles/10^6 cells
- cell survival ([9]; 26 μM WR-1065): 37%
- cell survival ([9]; 50 μM WR-1065): 55±22%
- cell survival ([9]; 52 μM WR-1065): 49%
- cell survival ([9]; 100 μM WR-1065): 42±18%
- cell survival ([9]; 103 μM WR-1065): 78%
- in vitro anti-HIV potency relative to cysteamine [2]: 2 fold
- HIV inhibition in human PBMCs (in words) ([2]; Experiment #1, 1000 μM): inhibits HIV completely
- HIV Viral P24 ([2]; Experiment #1, 1000 μM WR-1065, 72 h): 0.13 pg/mL
- influence on the effect of 10 μM AZT ([2]; Experiment #1, 1000 μM WR-1065 with 10 μM AZT): does not appear to alter
- HIV Viral P24 ([2]; Experiment #2, 100 μM WR-1065, 72 h): 8.92 pg/mL
- HIV Viral P24 ([2]; Experiment #2, 330 μM WR-1065, 72 h): 9.31 pg/mL
- HIV Viral P24 ([2]; Experiment #2, 1000 μM WR-1065, 72 h): 8.92 pg/mL
- HIV infection inhibition in human PBMCs (in words) ([2]; Experiment #2, concentrations as low as 100 μM): inhibit HIV infection completely
- HIV Viral P24 pg/ml ([2]; Experiment #3, 5 μM WR-1065, 72 h): 10,293.7 pg/ml
- HIV Viral P24 ([2]; Experiment #3, 10 μM WR-1065, 72 h): 911.2 pg/mL
- HIV Viral P24 ([2]; Experiment #3, 33 μM WR-1065, 72 h): 503.2 pg/mL
- HIV Viral P24 ([2]; Experiment #3, 66 μM WR-1065, 72 h): 33.2 pg/mL
- inhibition at 1000 µM ([2]; Human immunodeficiency virus 1, PBMC, 72 h, Experiment #1, 1000 μM WR-1065, 72 h, read-out: Estimated percent inhibition): ~100%
- inhibition at 100 µM ([2]; Human immunodeficiency virus 1, PBMC, 72 h, Experiment #2, 100 μM WR-1065, 72 h, read-out: Estimated percent inhibition): 94.9%
- inhibition at 330 µM ([2]; Human immunodeficiency virus 1, PBMC, 72 h, Experiment #2, 330 μM WR-1065, 72 h, read-out: Estimated percent inhibition): 94.7%
- inhibition at 1000 µM ([2]; Human immunodeficiency virus 1, PBMC, 72 h, Experiment #2, 1000 μM WR-1065, 72 h, read-out: Estimated percent inhibition): 94.9%
- inhibition at 5 µM ([2]; Human immunodeficiency virus 1, PBMC, 72 h, Experiment #3, 5 μM WR-1065, 72 h, read-out: Estimated percent inhibition): 76.8%
- inhibition at 10 µM ([2]; Human immunodeficiency virus 1, PBMC, 72 h, Experiment #3, 10 μM WR-1065, 72 h, read-out: Estimated percent inhibition): 98%
- inhibition at 33 µM ([2]; Human immunodeficiency virus 1, PBMC, 72 h, Experiment #3, 33 μM WR-1065, 72 h, read-out: Estimated percent inhibition): 98.9%
- inhibition at 66 µM ([2]; Human immunodeficiency virus 1, PBMC, 72 h, Experiment #3, 66 μM WR-1065, 72 h, read-out: Estimated percent inhibition): 99.9%
- suppression of HIV replication ([2]; concentration of less than 100 μM): > 99.9%
- duration of action (anti-HIV, cell culture) [2]: long duration of action
- antiviral efficacy [10]: has antiviral efficacy
- % Viable Cells (compared to control) ([11]; 1 μM): 83%
- % Viable Cells (compared to control) ([11]; 5 μM): 82%
- % Viable Cells (compared to control) ([11]; 10 μM): 90%
- % Viable Cells (compared to control) ([11]; 50 μM): 89%
- % Viable Cells (compared to control) ([11]; 100 μM): 63%
- % Viable Cells (compared to control) ([11]; 500 μM): 73%
- % Viable Cells (compared to control) ([11]; 1000 μM): 30%
- HIV-1 growth inhibition ([3]; 103-206 μM WR-1065): ≥ 94%
- inhibition at 26 µM ([3]; Human immunodeficiency virus 1, 26 μM WR-1065, mean SE, n=5): 65 ± 7.5%
- inhibition at 50 µM ([3]; Human immunodeficiency virus 1, 50 μM WR-1065, n=5): 83.2 ± 18.6%
- inhibition at 52 µM ([3]; Human immunodeficiency virus 1, 52 μM WR-1065, n=7): 88.7 ± 5.5%
- inhibition at 100 µM ([3]; Human immunodeficiency virus 1, 100 μM WR-1065, n=5): 92 ± 11%
- inhibition at 103 µM ([3]; Human immunodeficiency virus 1, 103 μM WR-1065, n=8): 93.9 ± 3.1%
- IC50 ([3]; Human immunodeficiency virus 1, dose-response 2.5-103.0 μM, mean±SE): 3100 ± 600 nM
- effect on antiretroviral activity of 0.8-3.0 μM AZT ([3]; WR-1065 at 26 μM): did not inhibit
- Concentration (μg/ml), plasma ([12]; 1 h after administration): 6.21 µg/mL
- Concentration (μg/ml), plasma ([12]; 2 h after administration): 4.14 µg/mL
- Concentration (μg/ml), plasma ([12]; 6 h after administration): 2.07 µg/mL
- antiviral efficacy [13]: has antiviral efficacy
- 14-day survival ([14]; continuous 50-100 μM WR-1065): < 20%
- 14-day survival ([14]; continuous 50-100 μM WR-1065, 10 mg/ml aminoguanidine added from day 4): 70-80%
- T1/2 [6, 15]: ≥ 2 h
- peak plasma level [6, 15]: ~100 µM
- bioavailability [6, 16]: high
- tissue distribution [6, 16]: widespread
